How the values were obtained:
Test in all cases: relative viability (nuclei count vs DMSO), 5 days (fraction); higher = more cells survive
[1] = compound: C[C@@]1(C(=O)Nc2ccc(F)nc2)CCCN1c1nc(Nc2cc(C3CC3)n[nH]2)c2cccn2n1 + C[C@]1(O)C[C@@H](c2nc(-c3ccc4ccc(-c5ccccc5)nc4c3)c3c(N)nccn32)C1 [Linsitinib] (partner 1 µM)
In short: (§1)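 Each reported value is a median over duplicate plates. It expresses relative viability: treated-well nuclei count divided by vehicle-well nuclei count. Lung cancer cell lines in 1536-well plates were dosed by pin tool a day after seeding, alone with one drug or with a fixed anchor-drug dose plus five library-drug doses (not always all listed) in √10 steps, and nuclei were counted after 5 days.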

[2] = compound: C[C@@]1(C(=O)Nc2ccc(F)nc2)CCCN1c1nc(Nc2cc(C3CC3)n[nH]2)c2cccn2n1 + CC(C)C[C@H](NC(=O)[C@H](Cc1ccccc1)NC(=O)c1cnccn1)B(O)O [Bortezomib] (partner 0.002 µM)
In short: as §1

[3] = compound: C[C@@]1(C(=O)Nc2ccc(F)nc2)CCCN1c1nc(Nc2cc(C3CC3)n[nH]2)c2cccn2n1 + COc1cc2c(Oc3ccc(NC(=O)C4(C(=O)Nc5ccc(F)cc5)CC4)cc3F)ccnc2cc1OCCCN1CCOCC1 [Foretinib] (partner 0.25 µM)
In short: as §1

[4] = compound: CC1(C)CNc2cc(NC(=O)c3cccnc3NCc3ccncc3)ccc21 [Motesanib] + Cc1cc(Nc2cc(N3CCN(C)CC3)nc(Sc3ccc(NC(=O)C4CC4)cc3)n2)n[nH]1 [Tozasertib] (partner 0.1 µM)
In short: as §1

| Cell Line | relative viability ([1]; first compound 0.04 µM) | relative viability ([1]; first compound 0.1265 µM) | relative viability ([1]; first compound 0.4 µM) | relative viability ([1]; first compound 1.265 µM) | relative viability ([2]; first compound 0.04 µM) | relative viability ([2]; first compound 0.1265 µM) | relative viability ([2]; first compound 0.4 µM) | relative viability ([2]; first compound 1.265 µM) | relative viability ([3]; first compound 0.04 µM) | relative viability ([3]; first compound 0.1265 µM) | relative viability ([3]; first compound 0.4 µM) | relative viability ([3]; first compound 1.265 µM) | relative viability ([4]; first compound 0.01 µM) | relative viability ([4]; first compound 0.03162 µM) | relative viability ([4]; first compound 0.1 µM) | relative viability ([4]; first compound 0.3162 µM) | relative viability ([4]; first compound 1 µM) |
| --- | --- | --- | --- | --- | --- | --- | --- | --- | --- | --- | --- | --- | --- | --- | --- | --- | --- |
| HCC-827 | 0.94 | 0.973 | 0.945 | 0.961 | 1.07 | 1.03 | 0.971 | 0.926 | 1.03 | 1.14 | 1.06 | 1.2 | 0.405 | 0.425 | 0.464 | 0.48 | 0.431 |
| HOP-62 | 0.927 | 0.773 | 1.06 | 1.06 | 0.752 | 0.67 | 0.704 | 1.02 | 1.14 | 1.11 | 1.02 | 1.16 | 0.369 | 0.306 | 0.412 | 0.388 | 0.395 |
| IA-LM | 0.602 | 0.718 | 0.459 | 0.452 | 0.844 | 0.933 | 0.807 | 0.48 | 1.3 | 1.11 | 0.921 | 1.13 |  |  |  |  |  |
| LC-2-ad | 0.897 | 0.865 | 0.788 | 0.576 | 1.06 | 0.845 | 0.805 | 0.411 | 0.651 | 0.617 | 0.599 | 0.5 | 0.447 | 0.362 | 0.439 | 0.476 | 0.45 |
| LCLC-97TM1 | 0.191 | 0.173 | 0.163 | 0.207 | 0.637 | 0.189 | 0.132 | 0.0641 | 0.31 | 0.292 | 0.278 | 0.499 | 0.2 | 0.178 | 0.257 | 0.279 | 0.17 |
| LCLC-103H | 1.23 | 1.01 | 1.01 | 1.18 | 1.07 | 1.08 | 0.788 | 0.958 | 0.597 | 0.491 | 0.422 | 0.637 | 0.489 | 0.341 | 0.47 | 0.442 | 0.551 |
| LK-2 | 0.579 | 1.11 | 0.376 | 0.573 |  |  |  |  | 0.731 | 0.945 | 0.671 | 0.979 | 0.177 | 0.163 |  | 0.163 | 0.181 |
| LOU-NH91 | 0.937 | 1.12 | 0.82 | 0.977 | 0.482 | 0.519 | 0.481 | 0.493 | 0.938 | 0.94 | 0.86 | 0.948 | 0.681 | 0.621 | 0.648 | 0.658 | 0.78 |
| LU99A | 0.544 | 0.497 | 0.499 | 0.467 | 0.984 | 0.837 | 0.623 | 0.445 | 0.602 | 0.467 | 0.478 | 0.432 | 0.262 | 0.234 | 0.263 | 0.273 | 0.263 |
| LXF-289 | 1.02 | 0.947 | 0.936 | 1.02 | 1.01 | 0.929 | 0.961 | 1 | 0.949 | 0.945 | 0.937 | 0.991 | 0.228 | 0.182 | 0.184 | 0.27 | 0.212 |
| NCI-H358 | 0.654 | 0.663 | 0.494 | 0.474 |  |  |  |  | 0.471 | 0.385 | 0.202 | 0.183 | 0.103 | 0.103 | 0.104 | 0.103 | 0.107 |
| NCI-H522 |  |  |  |  |  |  |  |  |  |  |  |  | 0.629 | 0.546 | 0.611 | 0.566 | 0.595 |
| NCI-H1299 | 0.988 | 1.04 | 1 | 0.988 | 1.05 | 0.975 | 1.03 | 1.03 | 1.21 | 1.06 | 0.585 | 1.05 |  |  |  |  |  |
| NCI-H1395 | 1.3 | 0.737 | 1.01 | 0.947 |  |  |  |  | 1.05 | 0.84 | 0.932 | 0.921 | 0.777 | 0.779 | 0.816 | 0.757 | 0.773 |
| NCI-H1563 | 1.11 | 1.07 | 1.06 | 1.16 | 0.853 | 0.826 | 0.73 | 0.747 | 1 | 0.975 | 0.784 | 0.83 |  |  |  |  |  |
| NCI-H1648 |  |  |  |  |  |  |  |  |  |  |  |  | 0.307 | 0.367 | 0.281 | 0.528 | 0.345 |
| NCI-H1650 |  |  |  |  | 0.185 | 0.248 | 0.185 | 0.174 | 1.53 | 1.16 | 0.984 | 1.08 | 0.467 | 0.381 | 0.438 | 0.491 | 0.439 |
| NCI-H1703 | 1.03 | 0.457 | 0.632 | 0.695 | 0.349 | 0.328 | 0.415 | 0.237 | 0.294 | 0.303 | 0.309 | 0.273 |  |  |  |  |  |
| NCI-H1792 | 0.654 | 0.596 | 0.503 | 0.713 | 0.868 | 0.825 | 0.651 | 0.506 |  |  |  |  |  |  |  |  |  |
| NCI-H1793 | 0.863 | 0.961 | 0.573 | 0.992 |  |  |  |  | 0.664 | 0.566 |  | 0.715 | 0.37 | 0.268 | 0.422 | 0.321 | 0.302 |
| NCI-H1944 | 1.18 | 1.2 | 1.1 | 1.3 |  |  |  |  | 0.764 | 0.676 | 0.496 | 0.649 | 0.258 | 0.229 | 0.233 | 0.236 | 0.284 |
| NCI-H2170 |  |  |  |  |  |  |  |  | 0.932 | 1.02 | 0.973 | 1.08 | 0.64 | 0.679 | 0.709 | 0.832 | 0.659 |
| NCI-H2342 |  |  |  |  |  |  |  |  | 1.02 | 0.906 | 0.812 | 0.917 | 0.493 | 0.496 | 0.438 | 0.562 | 0.583 |
| SK-MES-1 | 1.03 | 0.95 | 0.957 | 1.05 |  |  |  |  | 0.9 | 0.853 | 0.542 | 0.948 | 0.822 | 0.91 | 0.958 | 0.935 | 0.922 |
| SW 900 |  |  |  |  |  |  |  |  | 0.705 | 0.694 | 0.558 | 0.816 | 0.599 | 0.524 | 0.66 | 0.51 | 0.638 |

Source: the supplement of paper PMC10307832
